According to ChEMBL document CHEMBL4152187, “Plant-derived mPGES-1 inhibitors or suppressors: A new emerging trend in the search for small molecules to combat inflammation” (Eur J Med Chem, 2018):

What was measured:
Prostaglandin E synthase [1] = molecular target: T1, Prostaglandin E synthase (Homo sapiens, UniProt O14684); assay: Inhibition of mPGES1 in human A549 cell microsomal membrane using pGH2 as substrate pretreated for 15 mins followed by substrate addition and measured after 1 min by RP-HPLC method
T1 sequence (O14684 whole entry): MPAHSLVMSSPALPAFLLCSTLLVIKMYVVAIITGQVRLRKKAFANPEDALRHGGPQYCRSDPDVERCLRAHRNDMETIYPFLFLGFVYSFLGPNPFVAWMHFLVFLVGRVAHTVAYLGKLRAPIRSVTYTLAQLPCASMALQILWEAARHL

J774 [2] = assay: Inhibition of LPS-stimulated mPGES1 expression in mouse J774 cells; type: functional, cell-based
[3] = molecular target: T2, Prostaglandin E synthase (Homo sapiens) (UniProt O14684); assay: Inhibition of mPGES1 in human HeLa cells assessed as reduction in PGE2 production at 50 uM by enzyme immunoassay relative to control; type: cell-based
T2 sequence (whole entry): T1 sequence (O14684 whole entry)

[4] = molecular target: Prostaglandin G/H synthase 2 (Homo sapiens) (UniProt P35354); assay: Inhibition of COX2 in human Hs294 cells assessed as reduction in PGE2 production up to 20 uM by immunoblot analysis relative to control
Sequence of Prostaglandin G/H synthase 2 (Homo sapiens) (P35354 whole entry, looked up): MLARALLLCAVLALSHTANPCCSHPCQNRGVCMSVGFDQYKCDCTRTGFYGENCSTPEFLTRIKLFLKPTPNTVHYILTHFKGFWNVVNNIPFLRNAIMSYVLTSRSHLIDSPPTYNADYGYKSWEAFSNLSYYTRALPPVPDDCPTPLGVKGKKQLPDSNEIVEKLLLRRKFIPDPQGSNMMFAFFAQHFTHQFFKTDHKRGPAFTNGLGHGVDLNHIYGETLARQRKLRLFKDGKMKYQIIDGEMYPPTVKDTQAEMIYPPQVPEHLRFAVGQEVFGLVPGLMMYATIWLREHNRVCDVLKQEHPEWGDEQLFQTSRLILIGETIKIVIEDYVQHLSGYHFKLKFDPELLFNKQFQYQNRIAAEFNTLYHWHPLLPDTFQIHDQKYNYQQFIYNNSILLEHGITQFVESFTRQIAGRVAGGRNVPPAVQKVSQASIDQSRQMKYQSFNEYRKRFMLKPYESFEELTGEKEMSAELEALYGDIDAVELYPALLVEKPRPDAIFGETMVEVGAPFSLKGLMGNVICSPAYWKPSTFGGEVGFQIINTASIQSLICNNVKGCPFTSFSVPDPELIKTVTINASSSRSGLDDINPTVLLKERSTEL

[5] = molecular target: Prostaglandin G/H synthase 2 (Homo sapiens) (UniProt P35354); assay: Inhibition of COX2 in human A375 cells assessed as reduction in PGE2 production up to 20 uM by immunoblot analysis relative to control
Rattus norvegicus [6] = assay: Antiinflammatory activity against carrageenan-induced pleurisy in rat assessed as reduction in PGE2 level at 3.6 mg/kg, ip relative to control; type: functional; set-up: scale not given: the % may be the effect or the level left
Rattus norvegicus [7] = assay: Antiinflammatory activity against carrageenan-induced pleurisy in rat assessed as reduction in exudate formation at 3.6 mg/kg, ip relative to control; type: functional; set-up: scale not given: the % may be the effect or the level left
Rattus norvegicus [8] = assay: Antiinflammatory activity against carrageenan-induced pleurisy in rat assessed as reduction in cell infiltration at 3.6 mg/kg, ip relative to control; type: functional; set-up: scale not given: the % may be the effect or the level left
Prostaglandin E synthase [9] = molecular target: T1, Prostaglandin E synthase; assay: Inhibition of mPGES1 in human A549 cell microsomes
J774 [10] = assay: Inhibition of LPS-induced mPGES1 mRNA expression in mouse J774 cells at 100 uM measured after 6 to 24 hrs by qRT-PCR analysis; type: functional

For `CCCCCc1cc(OC(=O)c2c(O)cc(OC)cc2CCCCC)cc(O)c1C(=O)O`, the IC50 (Prostaglandin E synthase [1]) was 430 nM.

`CC(=O)O[C@@H]1CC[C@@]2(C)[C@@H](CC[C@]3(C)[C@@H]2CC=C2[C@@H]4[C@@H](C)[C@H](C)CC[C@]4(C)CC[C@]23C)[C@@]1(C)C(=O)O` was tested, and the IC50 (Prostaglandin E synthase [1]) was ≥ 30000 nM.

`COc1cc(C[C@@H]2COC(=O)[C@]2(O)Cc2ccc(O)c(OC)c2)ccc1O` showed an IC50 (J774 [2]) of 14000 nM.

`CCCCCC(=O)Cc1cc(O)cc(O)c1C(=O)Oc1cc(O)c(C(=O)O)c(CCCCC)c1` was tested, and the IC50 (Prostaglandin E synthase [1]) was 400 nM.

`C=C(C)[C@H](CC=C(C)C)C[C@]12C[C@H](CC=C(C)C)C(C)(C)[C@](CC=C(C)C)(C(=O)C(C(=O)c3ccc(O)c(O)c3)=C1O)C2=O` showed an IC50 (Prostaglandin E synthase [1]) of 300 nM.

`COc1ccc2cc3[n+](cc2c1OC)CCc1cc2c(cc1-3)OCO2` gave an inhibition [3] of 71.9%, an inhibition [4] of 16 to 63% and an inhibition [5] of 15 to 75%.

`C[C@H]1[C@H](C)CC[C@]2(C)CC[C@]3(C)C(=CC(=O)[C@@H]4[C@@]5(C)CC[C@@H](O)[C@](C)(C(=O)O)[C@@H]5CC[C@]43C)[C@H]12` [11-KETO BOSWELLIC ACID] showed an IC50 (Prostaglandin E synthase [1]) of 10000 nM.

`CCc1oc(=O)c(Cc2c(O)c(CC=C(C)C)c(O)c(C(C)=O)c2O)c(O)c1C` [ARZANOL] gave an Activity (Rattus norvegicus [6]) of 47%, an Activity (Rattus norvegicus [7]) of 59% and an Activity (Rattus norvegicus [8]) of 48%.

`COC(=O)c1c(C)cc(OC(=O)c2c(C)cc(O)c(C=O)c2O)c(C)c1O` [ATRANORIN] showed an IC50 (Prostaglandin E synthase [1]) of 1150 nM.

In the case of `COc1cc(/C=C/C(=O)CC(=O)/C=C/c2ccc(O)c(OC)c2)ccc1O` [CURCUMIN], the IC50 (Prostaglandin E synthase [1]) is reported as 300 nM.

With `CCCCCCCCCCCC1=C(O)C(=O)C=C(O)C1=O` [EMBELIN] the IC50 (Prostaglandin E synthase [9]) was 200 nM.

With `O=C(O[C@@H]1Cc2c(O)cc(O)cc2O[C@@H]1c1cc(O)c(O)c(O)c1)c1cc(O)c(O)c(O)c1` [EPIGALOCATECHIN GALLATE] the IC50 (Prostaglandin E synthase [1]) was 1800 nM.

For `COc1cc(-c2oc3cc(O)cc(O)c3c(=O)c2O)ccc1O` [ISORHAMNETIN], the inhibition at 100 µM (J774 [10]) was > 50%.

`O=c1c(O)c(-c2ccc(O)cc2)oc2cc(O)cc(O)c12` [KAEMPFEROL] was tested, and the inhibition at 100 µM (J774 [10]) was > 50%.
